Laboratory results reported in patent publication US20230278972A1, “SUBSTITUTED HALOALKYL SULFONANILIDE HERBICIDES” (FMC Corporation, priority 2020, published 2023).

Columns and labels:
Type in all cases: in vivo
corn (Zea mays) = assay: Test A postemergence, corn; conditions: Postemergence, 0 to 100 scale (0 no effect, 100 complete control); for Corn plant response rating: visual injury vs untreated controls after approx. 10 days
In short: (§1)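 Formulated with a surfactant in a non-phytotoxic solvent, compounds are applied to loam–sand pots, either to bare soil immediately after seeding (preemergence) or to seedlings of 2 to 10 cm bearing one to two leaves (postemergence).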

[1] = system: pigweed (Amaranthus retroflexus); assay: Test A preemergence, pigweed; conditions: for Plant response rating, Pigweed: 0 to 100 scale (0 no effect, 100 complete control); for Pigweed plant response rating: visual injury on 0 to 100 scale (0 no effect, 100 complete control), approximately 10 days
In short: (§2)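 Pots: loam soil/sand blend. Pre: directed soil spray at planting. Post: plants 2–10 cm, 1–2 leaf stage. Formulation: non-phytotoxic solvent + surfactant.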

[2] = system: Ryegrass, Italian (Italian ryegrass, Lolium multiflorum); assay: Test A postemergence, Ryegrass, Italian; conditions: Postemergence, 0 to 100 scale (0 no effect, 100 complete control); for Ryegrass, Italian plant response rating: visual injury vs untreated controls after approx. 10 days
In short: as §1

[3] = system: Ryegrass, Italian (Italian ryegrass, Lolium multiflorum); assay: Test A preemergence, Ryegrass, Italian; conditions: Preemergence; for Plant response rating, Ryegrass, Italian: 0 to 100 scale (0 no effect, 100 complete control); for Ryegrass, Italian plant response rating: visual injury on 0 to 100 scale (0 no effect, 100 complete control), approximately 10 days
In short: as §1

kochia (Bassia scoparia) [4] = assay: Test A preemergence, kochia; conditions: Preemergence; for Plant response rating, Kochia: 0 to 100 scale (0 no effect, 100 complete control); for Kochia plant response rating: visual injury on 0 to 100 scale (0 no effect, 100 complete control), approximately 10 days
In short: as §1

kochia (Bassia scoparia) [5] = assay: Test A postemergence, kochia; conditions: Postemergence, 0 to 100 scale (0 no effect, 100 complete control); for Kochia plant response rating: visual injury vs untreated controls after approx. 10 days
In short: as §1

[6] = system: wheat (Triticum aestivum); assay: Test A postemergence, wheat; conditions: Postemergence, 0 to 100 scale (0 no effect, 100 complete control); for Wheat plant response rating: visual injury vs untreated controls after approx. 10 days
In short: as §2

[7] = system: barnyardgrass (Echinochloa crus-galli); assay: Test A postemergence, barnyardgrass; conditions: Postemergence, 0 to 100 scale (0 no effect, 100 complete control); for Barnyardgrass plant response rating: visual injury vs untreated controls after approx. 10 days
In short: as §2

[8] = system: blackgrass (Alopecurus myosuroides); assay: Test A postemergence, blackgrass; conditions: Postemergence, 0 to 100 scale (0 no effect, 100 complete control); for Blackgrass plant response rating: visual injury vs untreated controls after approx. 10 days
In short: as §1

[9] = system: pigweed (Amaranthus retroflexus); assay: Test A postemergence, pigweed; conditions: Postemergence, 0 to 100 scale (0 no effect, 100 complete control); for Pigweed plant response rating: visual injury vs untreated controls after approx. 10 days
In short: as §1

[10] = system: ragweed (common ragweed, Ambrosia artemisiifolia); assay: Test A preemergence, ragweed; conditions: Preemergence; for Plant response rating, Ragweed: 0 to 100 scale (0 no effect, 100 complete control); for Ragweed plant response rating: visual injury on 0 to 100 scale (0 no effect, 100 complete control), approximately 10 days
In short: as §1

[11] = system: galium (catchweed bedstraw, Galium aparine); assay: Test A postemergence, galium; conditions: Postemergence, 0 to 100 scale (0 no effect, 100 complete control); for Galium plant response rating: visual injury vs untreated controls after approx. 10 days
In short: as §2

[12] = system: Foxtail, Giant (giant foxtail, Setaria faberi); assay: Test A postemergence, Foxtail, Giant; conditions: Postemergence, 0 to 100 scale (0 no effect, 100 complete control); for Foxtail, Giant plant response rating: visual injury vs untreated controls after approx. 10 days
In short: as §1

[13] = system: Foxtail, Giant (giant foxtail, Setaria faberi); assay: Test A preemergence, Foxtail, Giant; conditions: Preemergence; for Plant response rating, Foxtail, Giant: 0 to 100 scale (0 no effect, 100 complete control); for Foxtail, Giant plant response rating: visual injury on 0 to 100 scale (0 no effect, 100 complete control), approximately 10 days
In short: as §1

[14] = system: ragweed (common ragweed, Ambrosia artemisiifolia); assay: Test A postemergence, ragweed; conditions: Postemergence, 0 to 100 scale (0 no effect, 100 complete control); for Ragweed plant response rating: visual injury vs untreated controls after approx. 10 days
In short: as §1

[15] = system: barnyardgrass (Echinochloa crus-galli); assay: Test A preemergence, barnyardgrass; conditions: Preemergence; for Plant response rating, Barnyardgrass: 0 to 100 scale (0 no effect, 100 complete control); for Barnyardgrass plant response rating: visual injury on 0 to 100 scale (0 no effect, 100 complete control), approximately 10 days
In short: as §1

[16] = 125 g ai/ha, visual injury approx. 10 days
[17] = 31 g ai/ha, visual injury, approx. 10 days
[18] = 500 g ai/ha, visual injury approx. 10 days
[19] = 125 g ai/ha, visual injury, approx. 10 days

CSC1CCCN(C(=O)c2cc(NS(=O)(=O)C(F)(F)F)c(C)cc2C)C1 (centres unmarked) [Compound 3]
Plant response rating, Corn (corn (Zea mays); 31 g ai/ha): 20 | Plant response rating, Corn (corn (Zea mays); [16]): 30 | Plant response rating, Pigweed [1, 17]: 90 | Pigweed plant response rating ([1]; 125 g ai/ha): 100 | Plant response rating, Ryegrass, Italian ([2]; 31 g ai/ha): 0 | Plant response rating, Ryegrass, Italian [2, 16]: 0 | Plant response rating, Ryegrass, Italian [3, 17]: 20 | Ryegrass, Italian plant response rating ([3]; 125 g ai/ha): 70 | Plant response rating, Kochia (kochia (Bassia scoparia) [4]; [17]): 30 | Kochia plant response rating (kochia (Bassia scoparia) [4]; 125 g ai/ha): 80 | Plant response rating, Kochia (kochia (Bassia scoparia) [5]; 31 g ai/ha): 10 | Plant response rating, Kochia (kochia (Bassia scoparia) [5]; [16]): 40 | Plant response rating, Wheat ([6]; 31 g ai/ha): 30 | Plant response rating, Wheat [6, 16]: 50 | Plant response rating, Barnyardgrass ([7]; 31 g ai/ha): 0 | Plant response rating, Barnyardgrass [7, 16]: 30 | Plant response rating, Blackgrass ([8]; 31 g ai/ha): 0 | Plant response rating, Blackgrass [8, 16]: 0 | Plant response rating, Pigweed ([9]; 31 g ai/ha): 70 | Plant response rating, Pigweed [9, 16]: 90 | Plant response rating, Ragweed [10, 17]: 0 | Ragweed plant response rating ([10]; 125 g ai/ha): 70 | Plant response rating, Galium ([11]; 31 g ai/ha): 90 | Plant response rating, Galium [11, 16]: 90 | Plant response rating, Foxtail, Giant ([12]; 31 g ai/ha): 0 | Plant response rating, Foxtail, Giant [12, 16]: 0 | Plant response rating, Foxtail, Giant [13, 17]: 20 | Foxtail, Giant plant response rating ([13]; 125 g ai/ha): 50 | Plant response rating, Ragweed ([14]; 31 g ai/ha): 40 | Plant response rating, Ragweed [14, 16]: 80 | Plant response rating, Barnyardgrass [15, 17]: 0 | Barnyardgrass plant response rating ([15]; 125 g ai/ha): 50

COC1CCN(C(=O)c2cc(NS(=O)(=O)C(F)(F)F)c(Cl)cc2C)CC1 [Compound 246]
Plant response rating, Corn (corn (Zea mays); 125 g ai/ha): 20 | Plant response rating, Corn (corn (Zea mays); [18]): 40 | Plant response rating, Pigweed [1, 19]: 90 | Pigweed plant response rating ([1]; 500 g ai/ha): 100 | Plant response rating, Ryegrass, Italian ([2]; 125 g ai/ha): 0 | Plant response rating, Ryegrass, Italian [2, 18]: 10 | Plant response rating, Ryegrass, Italian [3, 19]: 70 | Ryegrass, Italian plant response rating ([3]; 500 g ai/ha): 100 | Plant response rating, Kochia (kochia (Bassia scoparia) [4]; [19]): 40 | Kochia plant response rating (kochia (Bassia scoparia) [4]; 500 g ai/ha): 90 | Plant response rating, Kochia (kochia (Bassia scoparia) [5]; 125 g ai/ha): 20 | Plant response rating, Kochia (kochia (Bassia scoparia) [5]; [18]): 80 | Plant response rating, Wheat ([6]; 125 g ai/ha): 20 | Plant response rating, Wheat [6, 18]: 60 | Plant response rating, Barnyardgrass ([7]; 125 g ai/ha): 70 | Plant response rating, Barnyardgrass [7, 18]: 90 | Plant response rating, Blackgrass ([8]; 125 g ai/ha): 20 | Plant response rating, Blackgrass [8, 18]: 0 | Plant response rating, Pigweed ([9]; 125 g ai/ha): 90 | Plant response rating, Pigweed [9, 18]: 90 | Plant response rating, Ragweed [10, 19]: 80 | Ragweed plant response rating ([10]; 500 g ai/ha): 90 | Plant response rating, Galium ([11]; 125 g ai/ha): 90 | Plant response rating, Galium [11, 18]: 90 | Plant response rating, Foxtail, Giant ([12]; 125 g ai/ha): 60 | Plant response rating, Foxtail, Giant [12, 18]: 90 | Plant response rating, Foxtail, Giant [13, 19]: 90 | Foxtail, Giant plant response rating ([13]; 500 g ai/ha): 100 | Plant response rating, Ragweed ([14]; 125 g ai/ha): 90 | Plant response rating, Ragweed [14, 18]: 90 | Plant response rating, Barnyardgrass [15, 19]: 40 | Barnyardgrass plant response rating ([15]; 500 g ai/ha): 100

Cc1cc(Cl)c(C2=NOC3(CCCC3)C2)cc1NS(=O)(=O)C(F)(F)F [Compound 185]
Plant response rating, Corn (corn (Zea mays); 125 g ai/ha): 0 | Corn plant response rating (corn (Zea mays); 500 g ai/ha): 0 | Pigweed plant response rating ([1]; 125 g ai/ha): 50 | Plant response rating, Pigweed ([1]; 500 g ai/ha): 80 | Plant response rating, Ryegrass, Italian ([2]; 125 g ai/ha): 0 | Ryegrass, Italian plant response rating ([2]; 500 g ai/ha): 0 | Ryegrass, Italian plant response rating ([3]; 125 g ai/ha): 50 | Plant response rating, Ryegrass, Italian ([3]; 500 g ai/ha): 100 | Kochia plant response rating (kochia (Bassia scoparia) [4]; 125 g ai/ha): 0 | Plant response rating, Kochia (kochia (Bassia scoparia) [4]; 500 g ai/ha): 0 | Plant response rating, Kochia (kochia (Bassia scoparia) [5]; 125 g ai/ha): 0 | Kochia plant response rating (kochia (Bassia scoparia) [5]; 500 g ai/ha): 10 | Plant response rating, Wheat ([6]; 125 g ai/ha): 0 | Wheat plant response rating ([6]; 500 g ai/ha): 0 | Plant response rating, Barnyardgrass ([7]; 125 g ai/ha): 0 | Barnyardgrass plant response rating ([7]; 500 g ai/ha): 20 | Plant response rating, Blackgrass ([8]; 125 g ai/ha): 0 | Blackgrass plant response rating ([8]; 500 g ai/ha): 10 | Plant response rating, Pigweed ([9]; 125 g ai/ha): 0 | Pigweed plant response rating ([9]; 500 g ai/ha): 40 | Ragweed plant response rating ([10]; 125 g ai/ha): 20 | Plant response rating, Ragweed ([10]; 500 g ai/ha): 70 | Plant response rating, Galium ([11]; 125 g ai/ha): 30 | Galium plant response rating ([11]; 500 g ai/ha): 70 | Plant response rating, Foxtail, Giant ([12]; 125 g ai/ha): 0 | Foxtail, Giant plant response rating ([12]; 500 g ai/ha): 0 | Foxtail, Giant plant response rating ([13]; 125 g ai/ha): 50 | Plant response rating, Foxtail, Giant ([13]; 500 g ai/ha): 100 | Plant response rating, Ragweed ([14]; 125 g ai/ha): 0 | Ragweed plant response rating ([14]; 500 g ai/ha): 40 | Barnyardgrass plant response rating ([15]; 125 g ai/ha): 70 | Plant response rating, Barnyardgrass ([15]; 500 g ai/ha): 100

Cc1cc(C)c(N(S(=O)(=O)C(F)(F)F)S(=O)(=O)C(F)(F)F)cc1C1=NOC2(CCC(C)(C)CC2)C1 [Compound 139]
Plant response rating, Corn (corn (Zea mays); [16]): 0 | Corn plant response rating (corn (Zea mays); 500 g ai/ha): 0 | Pigweed plant response rating ([1]; 125 g ai/ha): 20 | Plant response rating, Pigweed ([1]; 500 g ai/ha): 70 | Plant response rating, Ryegrass, Italian ([2]; 125 g ai/ha): 0 | Ryegrass, Italian plant response rating ([2]; 500 g ai/ha): 0 | Ryegrass, Italian plant response rating ([3]; 125 g ai/ha): 50 | Plant response rating, Ryegrass, Italian ([3]; 500 g ai/ha): 70 | Kochia plant response rating (kochia (Bassia scoparia) [4]; 125 g ai/ha): 0 | Plant response rating, Kochia (kochia (Bassia scoparia) [4]; 500 g ai/ha): 60 | Plant response rating, Kochia (kochia (Bassia scoparia) [5]; [16]): 0 | Kochia plant response rating (kochia (Bassia scoparia) [5]; 500 g ai/ha): 50 | Plant response rating, Wheat ([6]; 125 g ai/ha): 0 | Wheat plant response rating ([6]; 500 g ai/ha): 0 | Plant response rating, Barnyardgrass [7, 16]: 0 | Barnyardgrass plant response rating ([7]; 500 g ai/ha): 0 | Plant response rating, Blackgrass [8, 16]: 0 | Blackgrass plant response rating ([8]; 500 g ai/ha): 0 | Plant response rating, Pigweed ([9]; 125 g ai/ha): 40 | Pigweed plant response rating ([9]; 500 g ai/ha): 80 | Ragweed plant response rating ([10]; 125 g ai/ha): 0 | Plant response rating, Ragweed ([10]; 500 g ai/ha): 30 | Plant response rating, Galium [11, 16]: 50 | Galium plant response rating ([11]; 500 g ai/ha): 80 | Plant response rating, Foxtail, Giant [12, 16]: 0 | Foxtail, Giant plant response rating ([12]; 500 g ai/ha): 0 | Foxtail, Giant plant response rating ([13]; 125 g ai/ha): 0 | Plant response rating, Foxtail, Giant ([13]; 500 g ai/ha): 20 | Plant response rating, Ragweed ([14]; 125 g ai/ha): 0 | Ragweed plant response rating ([14]; 500 g ai/ha): 0 | Barnyardgrass plant response rating ([15]; 125 g ai/ha): 0 | Plant response rating, Barnyardgrass ([15]; 500 g ai/ha): 30
